The source made the active and inactive calls.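 Rule for the calls: active = compounds giving half or more protection of infected cells from virus-caused growth loss, again on retest; inactive = the rest.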 Where a SMILES comes first, the peptide text is derived from it.
Test system: CEM cells HIV-1 protection, formazan growth assay
Test: NCI AIDS Antiviral Assay
Details: for IC50: measured here: growth of uninfected CEM cells
Procedure, shortened: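 Human CEM cells, uninfected and HIV-1-infected, exposed to five drug concentrations; growth measured by soluble formazan assay and scored as percent protection from infection, with protecting compounds retested.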

Row | Compound | EC50 | IC50 | outcome
1 | CC(C)C1NC(=O)CC(c2ccccc2)N(N=O)C1c1ccccc1 (stereo unspecified) | > 77.6 µM | > 77.6 µM | 
2 | COc1ccc(/C=N/NC(N)=O)cc1 | > 186 µM | > 186 µM | 
3 | COC(=O)[C@@H]1OC(C)(c2ccccc2)O[C@H]1C(=O)OC | > 200 µM | > 200 µM | 
4 | Cn1c(=O)oc2cc(C(=S)N3CCC(Cc4ccccc4)CC3)ccc21 | > 200 µM | > 200 µM | 
5 | Brc1ccc(N=NN2CCCC2)cc1 | > 200 µM | 38.9 µM | 
6 | CC(NNC(=S)N1CCCC1)c1cccnn1 (stereo unspecified) | > 200 µM | 0.372 µM | 
7 | c1cc2cc(Cc3ccc4[nH]ccc4c3)ccc2[nH]1 | > 200 µM | 30.9 µM | 
8 | Cc1ccc(NC(=O)c2cc(S(=O)(=O)Nc3n[nH]c(=O)n3-c3ccccc3)c(S)cc2Cl)cc1 | 42.7 µM | > 200 µM | 
9 | Cc1ccc2c(c1)C(c1cccc3ccccc13)OC2=O (stereo unspecified) |  |  | inactive
10 | O=C1C(=O)c2ccccc2C(O)=C1CCCc1ccc(Oc2ccccc2)cc1 |  |  | inactive
11 | CCOC(=O)C(=Cc1ccc(C#N)cc1)C(=O)OCC | > 132 µM | 8.91 µM | 
12 | COC(=O)C1C(=O)CC(C)(O)C(C(=O)OC)C1c1ccc(N(C)C)cc1 (stereo unspecified) | > 200 µM | > 200 µM | 
13 | CCN(CC)C(=S)SNCCc1ccc(S(N)(=O)=O)cc1 | > 200 µM | 10.5 µM | 
14 | O=c1c(O)c(O)c1=O.[NH2-].[NH2-].[NH2-].[NH2-].[NH2-].[Ru+5] | > 21.4 µM | > 21.4 µM | 
15 | NCCCC[C@H](NC(=O)[C@H](CS)NC(=O)[C@@H](N)Cc1cnc[nH]1)C(=O)N[C@H](Cc1ccccc1)C(=O)N[C@@H](Cc1c[nH]c2ccccc12)C(=O)N[C@@H](Cc1c[nH]c2ccccc12)C(N)=O | > 200 µM | > 200 µM | 
16 | C1=Nc2ccc(cc2)N=Cc2ccc(cc2)OCc2cccc(n2)COc2ccc1cc2 | > 100 µM | > 100 µM | 
17 | CCOC(=O)C(Cc1ccccc1)NC(=O)c1[nH]cnc1/N=N/N(C)C (stereo unspecified) | > 692 µM | 355 µM | 
18 | Cc1cc(-c2cccc3ccccc23)c(C#N)c(=S)n1C1OC(CO)C(O)C(O)C1O (stereo unspecified) | > 200 µM | 66.1 µM | 
19 | C=CCNc1nc2c(s1)c(C)c(O)c1ccccc12 | > 200 µM | 3.55 µM | 
20 | CN(C)N=Nc1cccc(C(N)=O)c1 | > 646 µM | 145 µM | 

Row | Compound | EC50 | IC50 | outcome
21 | O=C(N=Nc1c(O)[nH]c2ccccc12)C(O)(c1ccccc1)c1ccccc1 | > 200 µM | 39.8 µM | 
22 | Nc1nc(Cl)cc(NCC2(CO)CCC2)n1 | > 200 µM | 191 µM | 
23 | O=S1(=O)CCC2=CC(C(F)(F)F)=CC(C(F)(F)F)=CN21 | > 81.3 µM | 0.38 µM | 
24 | NC(CC(=O)N/C=N\O)C(=O)O (stereo unspecified) | > 200 µM | > 200 µM | 
25 | CCOC(=O)[C@@]12C[C@](/C=C/OC)(O[Si](C)(C)C)[C@@]13c1cc(OC)c(OC)cc1CCN3C(=O)C2=O | > 200 µM | > 200 µM | 
26 | N#Cc1c(N)c2c(c(-c3ccccc3)c1-c1ccccc1)C(=O)N(NC(=O)c1ccccc1)C2=O | 75.9 µM | 102 µM | 
27 | Cn1nc(/C=C/c2ccccc2)nc2c(=O)n(C)c(=O)nc1-2 | > 200 µM | 0.631 µM | 
28 | CCC(C)C1NC(=O)C2CCCN2C(=O)CNC(=O)C(C)NC(=O)C(Cc2ccccc2)NC(=O)C(C(C)C)NC1=O (stereo unspecified) (cyclo(GPIVFA); configuration not given here) |  |  | inactive
29 | CN1C2(c3ccccc3)C(C(=O)c3ccccc3)=C(C(=O)c3ccccc3)C1(c1ccccc1)c1c(-c3ccccc3)sc(-c3ccccc3)c12 |  |  | inactive
30 | COC(CN(C(C)=O)C1CCC2(SCCS2)c2[nH]c3ccccc3c21)OC (stereo unspecified) | > 200 µM | 123 µM | 
31 | CCOC(=O)c1ccc(N=C2S/C(=C\C(=S)Nc3ccccc3)N(c3ccccc3)C2=Nc2ccc(C(=O)OCC)cc2)cc1 | > 200 µM | > 200 µM | 
32 | COc1ccc(Oc2c(OC)cc(NCCCCCN3C(=O)c4ccccc4C3=O)c3ncccc23)cc1 | > 100 µM | > 100 µM | 
33 | CN=C(NC)c1ccc(NC(=O)c2ccc(C(=O)Nc3ccc(C(=NC)NC)c(C)c3)cc2)cc1C |  |  | inactive
34 | COc1ccc(/C=C(\C(=C/c2ccc(OC)cc2)[N+](=O)[O-])[N+](=O)[O-])cc1 | > 200 µM | 4.57 µM | 
35 | COc1cncn2nc(C)nc12 | > 75.9 µM | > 75.9 µM | 
36 | CNC(=O)Nc1ccncc1 | > 200 µM | > 200 µM | 
37 | CCCCCCCCCN=C(N)CSSCC(N)=NCCCCCCCCC | > 200 µM | 19.5 µM | 
38 | COc1ccc2oc3c(OC)c(OC)c(OC)cc3c(=O)c2c1 | > 8.71 µM |  | 
39 | CC(=O)Nc1[nH]c(=O)[nH]c(=O)c1N(C(C)=O)C(C)=O | > 933 µM | > 933 µM | 
40 | O=C1C[C@@H]2[C@@H](CCC23CCCC3)N1 |  |  | inactive

Row | Compound | EC50 | IC50 | outcome
41 | CCOC(=O)C1CSCCSC1 | > 174 µM | > 174 µM | 
42 | CC(=O)/C(=C/c1cccc(F)c1)C(=O)c1ccccc1 | > 19.5 µM | > 19.5 µM | 
43 | O=C1c2cscc2C(=O)c2c(Cl)sc(Cl)c21 | > 0.2 µM | > 0.2 µM | 
44 | CN(C)CCn1c(=O)c2ccc(NCCN3CCNCC3)c3c(=O)c4ccccc4n(c1=O)c23 | > 200 µM | 0.0631 µM | 
45 | CC(C)SSC(=O)N1CCCC1C(=O)O (stereo unspecified) | > 200 µM | > 200 µM | 
46 | CC(C)CCCC(C)[C@H]1CC[C@H]2[C@@H]3CC[C@H]4C[C@@H](CCC=C(c5cc(Cl)c(O)c(C(=O)OC(C)C)c5)c5cc(Cl)c(O)c(C(=O)OC(C)C)c5)CC[C@]4(C)[C@H]3CC[C@]12C (stereo partly specified) | 67.6 µM | 151 µM | 
47 | c1ccc(CN2COc3c(ccc4c5c(ccc34)CN(Cc3ccccc3)CO5)C2)cc1 | > 2.45 µM | > 2.45 µM | 
48 | COc1cc(OC)c(C#N)c(OC)c1C |  |  | inactive
49 | COc1c(Cl)cc(Cl)c(CCCCCCCC(=O)O)c1Cl | > 100 µM | > 100 µM | 
50 | C[C@@]1(CI)OC(=O)N2CCC[C@H]21 | > 891 µM | > 891 µM | 
51 | O=C1OC(N=P(c2ccccc2)(c2ccccc2)c2ccccc2)C(N=P(c2ccccc2)(c2ccccc2)c2ccccc2)=C1Cl (stereo unspecified) | > 20 µM | 18.2 µM | 
52 | O=c1c2ccccc2c(=O)c2c1c1c(=O)c3ccccc3c(=O)c1c1c(=O)c3ccccc3c(=O)c21 | > 200 µM | > 200 µM | 
53 | CCOC(=O)Oc1c(Cl)cc(C(=CCC[C@H]2CC[C@@]3(C)[C@@H](CC[C@@H]4[C@@H]3CC[C@]3(C)[C@@H](C(C)CCCC(C)C)CC[C@@H]43)C2)c2cc(Cl)c(OC(=O)OCC)c(C(=O)OCC)c2)cc1C(=O)OCC (stereo partly specified) |  |  | inactive
54 | Cc1[nH]c2c(C)c3c([nH]c4ccc(Cl)cc43)c(C)c2c(=O)c1C | > 17 µM | 9.77 µM | 
55 | CSC1=NNC(SC)=NN1 | > 200 µM | 0.708 µM | 
56 | C#C[C@]1(O)CCC2C3CCc4cc(Oc5nc(F)nc(-c6c7cc8ccccc8cc7c7n6CCS7)n5)ccc4C3CCC21C (stereo partly specified) | > 200 µM | 25.1 µM | 
57 | NC(=O)N/N=C(\CCC(=O)N(Cc1ccccc1)Cc1ccccc1)CC(=O)c1ccc(F)cc1 | > 200 µM | > 200 µM | 
58 | CCCCCCCC(=O)OC[C@@H](C[As](=O)(O)O)OC(=O)CCCCCCC | > 200 µM | 9.33 µM | 
59 | CC(C)(C)OC(=O)N[C@H]1CC(O)c2ccccc2N(CC(=O)O)C1=O (stereo partly specified) | > 251 µM | > 251 µM | 
60 | O=C(/C(=C/c1cccc(Cl)c1)c1ccccc1)c1ccccc1 | > 8.51 µM | > 8.51 µM | 

From PubChem BioAssay AID179 (DTP/NCI, 2004)
